pIC50: −log10 of the molar value.

This is an account of results in patent US5741785A, “Heterocyclic compounds, their preparation and use” (Novo Nordisk A/S, priority 1994, dated 1998).

One assay concerns the target AMPA type receptors. Kind of assay: 3H-AMPA binding (Test 1), rat cerebral cortical membrane homogenate. Conditions: 5 nM 3H-AMPA, 0° C., 30 min, pH 7.1, Hill analysis; read-out: IC50 (50% displacement of the specific binding of 3H-AMPA), TEST 1. From the text:
AMPA receptor binding may be studied by using ^3 H-AMPA as radioligand.
The pharmacological properties of the compounds of the present invention can be illustrated by determining their capability for displacing radioactively labelled 2-amino-3-hydroxy-5-methyl-4-isoxazolepropionic acid (AMPA) from the AMPA type receptors.
The displacement activity of the compounds may be shown by determining the IC50 value which represents the concentration (μM) which causes a displacement of 50% of the specific binding of ^3 H-AMPA.
^3 H-AMPA binding (Test 1)
500/μl of thawed rat cerebral cortical membrane homogenate in Tris-HCl (30 mM), CaCl2 (2.5 mM) and KSCN (100 mM) pH 7.1 were incubated at 0° C. for 30 min. with 25 μl ^3 H-AMPA (5 nM final concentration) and the test compound and buffer. Nonspecific binding was determined by incubation with L-glutamic acid (600/μM final concentration). The binding reaction was terminated by adding 5 ml of ice-cold buffer followed by filtration through Whatman GF/C glass fibre filters and 2×5 ml wash with ice-cold buffer. Bound radioactivity was measured by scintillation counting. IC50 was determined by Hill analysis of at least four concentrations of test compound.

Assay [1] has as its system quisqualic acid stimulated spreading depression in chicken retina. In words: Spreading depression (Test 2), quisqualic acid stimulated, chicken retina. The class given is cell-based. The conditions noted are these: Gallus gallus, quisqualate 1 μg/ml, 15 min preincubation, 26° C., read-out: IC50 (50% maximal inhibition of quisqualic acid stimulated spreading depression), TEST 2. An excerpt: The influence of glutamic acid analogues on secondary effects of glutamate receptor interactions may be studied in vitro by using the phenomenon of spreading depression in chicken retina. Such experiments will provide information as to the efficacies (agonist/antagonist) of the test substances. This is in contrast to binding studies, which only provide information on the affinities of the compounds for the receptor.
The pharmacological properties of the compounds of the present invention can be illustrated by determining their capability for displacing radioactively labelled 2-amino-3-hydroxy-5-methyl-4-isoxazolepropionic acid (AMPA) from the AMPA type receptors. […]
The eyes were initially incubated in normal P.S.S. for 15-30 min. and then transferred to P.S.S. containing quisqualate (1 μg/ml). In this "stimulating solution" S.D.s start spontaneously usually from the edge of the retina, and can be easily observed by eye, The time taken for an S.D. to start in each eye was measured.
After a further 15 min. of incubation in normal P.S.S. the eyes were transferred to normal P.S.S, containing the test compound and incubated for 15 min. […] The time taken for an S.D. to start in each eye was measured again. The eyes were then placed back in normal P.S.S. and after 15 min. the time taken for S.D. to start was measured again, in order to assess the degree of recovery from any drug effects. […]

In a further assay the test system is AMPA receptor. The conditions noted are these: reported in J. Med. Chem., 35, 3319-3324, 1992; cited from earlier work.

The pIC50 is the IC50 on a negative log10 scale, so that one unit is a factor of ten. `Cc1c(C(=O)O)nc2c(=O)[nH]c3cc(C(F)(F)F)ccc3n12` [Example 2, 2-Carboxy-1-methyl-7-trifluoromethylimidazo[1,2-a]quinoxalin-4(5H)-one]: the pIC50 is 6.35 on AMPA type receptors and 5.96 in assay [1]. As for `O=c1[nH]c2cc(Cl)c(Cl)cc2n2ccnc12` [7,8-dichloro-imidazo[1,2-a]quinoxaline-4(5H)-one], the “affinity for the AMPA receptor” value in the assay on AMPA receptor is on record as “reasonable affinity”.
